Ends that are not written are not given here.
How the values were obtained:
GST-S6K11-365 = GST-S6K11-365 (Rattus norvegicus, UniProt P67999); assay: Global amide hydrogen exchange (HXMS); set-up: made in house; conditions: early time points; peptide 150 molar excess
Text: (A) Effect of S6K1 tail peptides, described in the legend to FIG. 13, on global deuteron uptake by purified GST-56K11-365. (B) Kinase activity of wt and mutant GST-PKCζ. (C) Global deuteron uptake by wt and mutant GST-PKCζ. (D) Local deuteron uptake by wt and mutant GST-PKCζ. In the PKCζ model, peptides showing strong and no-or-slight protection by the tail phosphate are shown in pink and grey, respectively. The panels show HX curves of the peptides. Experiments were repeated 2 times (A, C, D) or 3 times (B) and data are means±range (A, C) or ±SD (B)
Amide hydrogen (^1H/^2H) exchange monitored by mass spectrometry (HXMS). D2O (99.9 atom % D) was obtained from Cambridge Isotope Laboratories. Isotopic exchange was initiated by diluting 8 μl 20-40 μM protein in 300 μl deuterated buffer (25 mM Tris, 150 mM NaCl, 1 mM dithiothreitol, 10 mM MgCl2, 25 mM glutathione, pD 7.1 uncorrected value). The exchange was carried out at 30° C., and 75 μl aliquots were collected after 1 min, 5 min, 15 min, and 45 min. […]
The LC setup was described previously (Jorgensen et al., 2004), with the modification that proteins were desalted for 5 min and eluted with a 9 min linear gradient (14% to 70% acetonitrile, 0.05% TFA) to separate the free GST from the GST-tagged kinases of interest in the global hydrogen exchange analysis. […] The HXMS data on peptide level were analyzed by HX-Express (Weis et al., 2006). […]

PDK1 [Thr226Trp] = molecular target: T1, PDK1 [Thr226Trp] (Homo sapiens, UniProt O15530, T226W); assay: PDK1 activity assay with T308tide; type: biochemical; conditions: catalytic domain 50-360
T1 construct: the catalytic domain of PDK1 (50-359) produced in SF9 insect cells; His-tag (N, cleaved yes); made in house; host or cells: insect cells (baculovirus)
Procedure: (§1) FIG. 6—A mutation at Thr226 in PDK1 uncouples the ligand binding to the HM/PIF-pocket from activation of the kinase. The catalytic domain (CD) of PDK1 50-360 and its mutants Phe224Trp and Thr226Trp were expressed in insect cells and purified. (A) PDK1 activity was measured in the presence or absence of the HM-polypeptide PIFtide or compound 1 using T308tide as a substrate. PDK1 CD wt and PDK1 [Phe224Trp] were activated by PIFtide and compound 1 whereas PDK1 CD [Thr226Trp] mutant was not activated. (B,C,D,E) PDK1 [Phe224Trp] and PDK1 [Thr226Trp] retain significant binding to P-HM polypeptides and PIFtide. Surface plasmon resonance measurements were carried out on a BiaCore system to evaluate the binding affinities of PDK1 CD wt, PDK1 [Phe224Trp] and PDK1 [Thr226Trp] to HM-polypeptides. Biotin-P-HM-polypeptide derived from S6K1 was immobilized on a streptavidin-coated sensor chip and the specific interaction with PDK1 was recorded. (B) The direct binding of PDK1 CD wt to biotin-P-HM-S6K was recorded at the indicated concentrations of PDK1 CD. The Kd (0.05 μM) was estimated based on the response units obtained at each concentration at equilibrium (insert).
(§2) Protein kinase activity tests were performed essentially as previously described (Balendran et al., 2000; Biondi et al., 2000; Biondi et al., 2001). Substrates used were either MBP (for PKCζ or polypeptides (Crosstide for PKB, S6K, SGK and PRK2; T308tide for PDK1, and Kemptide for PKA). PKA (Sigma) was measured in the presence of 100 μM cAMP. Alternatively, assays were performed in a 96 well format, aliquots spotted on p81 phosphocellulose papers (Whatmann), washed in 0.01% phosphoric acid, dried, and then exposed and analysed using Phospholmager technology (Storm, Molecular Dynamics). Activity measurements were performed in duplicates with less than 10% difference between duplicate pairs. Experiments were repeated at least twice, although most of the experiments were repeated multiple times, with similar results.
(§3) PDK1 activity assay was performed in a 20 μl mix containing 50 mM Tris-HCl pH 7.5, 0.05 mg/ml BSA, 0.1% β-mercaptoethanol, 10 mM MgCl2, 100 μM [γ^32P]ATP (5-50 cpm/pmol), 0.003% Brij, 150 ng PDK1, and T308tide (from 0.05 to 1 mM). PDK1 specific activity was approximately 5 U/mg (when measured at 1 mM T308tide). The effect of small compounds on PDK1 was repeated with proteins from different purification batches and with different protein constructs, comprising the full length protein or the catalytic domain alone, with similar results. […] This variability may be due to the PIFtide/compound-stimulated autophosphorylation of the activation loop in certain preparations having less than a 1:1 molar phosphorylation stoichiometry at this site.

PDK1 [Phe224Trp] = molecular target: T2, PDK1 [Phe224Trp] (Homo sapiens, UniProt O15530, F224W); assay: PDK1 activity assay with T308tide; type: biochemical; conditions: catalytic domain 50-360
T2 construct: the catalytic domain of PDK1 (50-359) produced in SF9 insect cells; His-tag (N, cleaved yes); made in house; host or cells: insect cells (baculovirus)
Procedure: as §1, §2, §3

T1 sequence (O15530 50-359 T226W): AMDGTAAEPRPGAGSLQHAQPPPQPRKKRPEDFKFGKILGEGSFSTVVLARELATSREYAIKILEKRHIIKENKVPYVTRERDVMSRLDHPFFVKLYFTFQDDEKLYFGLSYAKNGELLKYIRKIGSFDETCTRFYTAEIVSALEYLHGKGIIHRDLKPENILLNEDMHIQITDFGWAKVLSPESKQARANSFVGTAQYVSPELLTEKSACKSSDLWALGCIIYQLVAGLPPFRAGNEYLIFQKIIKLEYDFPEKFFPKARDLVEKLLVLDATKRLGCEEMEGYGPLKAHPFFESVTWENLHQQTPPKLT
T2 sequence (O15530 50-359 F224W): as the sequence (O15530 50-359 T226W) above, with F175W, W177T counted along it
GST-S6K11-365, sequence (P67999 24-388): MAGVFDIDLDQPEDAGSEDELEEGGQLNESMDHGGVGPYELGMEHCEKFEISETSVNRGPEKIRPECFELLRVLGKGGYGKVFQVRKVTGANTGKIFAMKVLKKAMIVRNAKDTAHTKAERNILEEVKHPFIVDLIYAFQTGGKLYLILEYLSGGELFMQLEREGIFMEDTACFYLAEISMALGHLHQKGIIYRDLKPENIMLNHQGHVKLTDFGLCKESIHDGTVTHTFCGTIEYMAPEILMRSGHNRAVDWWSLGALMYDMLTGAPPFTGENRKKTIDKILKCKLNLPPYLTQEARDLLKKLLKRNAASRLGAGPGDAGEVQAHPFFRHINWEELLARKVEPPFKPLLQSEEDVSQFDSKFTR

| Molecule | fewer deuterons incorporated in S6K11-365 versus no peptide (GST-S6K11-365) | activation of PDK1 [Thr226Trp] (in words) (PDK1 [Thr226Trp]) | activation of PDK1 [Phe224Trp] (in words) (PDK1 [Phe224Trp]) |
| --- | --- | --- | --- |
| S371/T389: synthetic S6K1 tail peptide (residues 366-395), non-phosphorylated | no effect | – | – |
| REPRILSEEEQEMFRDFDYIADWC [PIFtide, reference compound] | – | not activated | activated |
| O=C(O)CSC(CC(=O)c1ccc(Cl)cc1)c1ccccc1 (stereo not drawn) [Compound 1] | – | not activated | activated |
| S371/pT389: synthetic S6K1 tail peptide (residues 366-395) phosphorylated in the HM | ≈ 10 deuterons | – | – |
